According to ChEMBL document CHEMBL1201862, “PubChem BioAssay data set” (2004):
Values belong to the compound of their own block, whether it stands above or below them. Activity calls are given as the source filed them.

Key:
[1] = molecular target: T1, Leucine aminopeptidase (Plasmodium falciparum 3D7, UniProt Q8IL11); assay: P. falciparum M17LAP inhibitors, primary screen, biochemical, fluorogenic H-Leu-NHMec substrate, 1536-well (AID 1619); assay type: functional
T1 sequence (Q8IL11 whole entry): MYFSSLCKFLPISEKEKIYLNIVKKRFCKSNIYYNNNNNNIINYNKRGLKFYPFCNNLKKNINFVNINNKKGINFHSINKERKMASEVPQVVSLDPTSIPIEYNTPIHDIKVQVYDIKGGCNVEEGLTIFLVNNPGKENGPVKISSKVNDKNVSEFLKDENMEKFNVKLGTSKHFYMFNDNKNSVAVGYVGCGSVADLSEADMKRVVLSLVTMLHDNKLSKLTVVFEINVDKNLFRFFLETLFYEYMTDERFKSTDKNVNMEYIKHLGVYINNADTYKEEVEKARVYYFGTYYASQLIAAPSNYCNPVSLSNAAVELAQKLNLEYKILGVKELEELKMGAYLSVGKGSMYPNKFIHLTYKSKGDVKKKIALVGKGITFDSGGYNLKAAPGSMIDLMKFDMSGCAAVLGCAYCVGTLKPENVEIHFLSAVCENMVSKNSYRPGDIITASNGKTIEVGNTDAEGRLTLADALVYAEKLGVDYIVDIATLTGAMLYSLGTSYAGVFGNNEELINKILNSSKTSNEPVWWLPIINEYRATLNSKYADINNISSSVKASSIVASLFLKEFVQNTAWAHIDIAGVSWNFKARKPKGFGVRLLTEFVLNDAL

[2] = molecular target: T2, Calpain-2 catalytic subunit (Sus scrofa, UniProt P43367); assay: m-calpain protease blockers, concentration series – biochemical, fluorogenic peptide substrate, dose response (AID 1420); assay type: functional
T2 sequence (P43367 whole entry): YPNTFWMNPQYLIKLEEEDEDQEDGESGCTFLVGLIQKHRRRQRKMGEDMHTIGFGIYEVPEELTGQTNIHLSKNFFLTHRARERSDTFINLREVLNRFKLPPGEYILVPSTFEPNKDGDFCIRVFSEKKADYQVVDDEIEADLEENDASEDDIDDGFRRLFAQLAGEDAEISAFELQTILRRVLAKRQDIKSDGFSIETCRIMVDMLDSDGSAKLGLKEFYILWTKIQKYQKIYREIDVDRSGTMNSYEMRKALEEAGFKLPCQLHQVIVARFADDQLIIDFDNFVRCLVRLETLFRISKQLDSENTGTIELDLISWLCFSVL

[3] = molecular target: Glyceraldehyde-3-phosphate dehydrogenase (Homo sapiens, UniProt P04406)
[4] = molecular target: T3, Polyadenylate-binding protein 1 (Homo sapiens, UniProt P11940); assay: MLLE binding blockers, Cy5 peptide tracer – biochemical, fluorescence polarization, Cy5-PAM2 peptide, secondary, miRNA deadenylation inhibitor project, dose response (AID 602260); assay type: functional; details: read-out: IC50_Mean
[5] = molecular target: T3, Polyadenylate-binding protein 1; assay: MLLE domain peptide-binding blockers, IC50 – biochemical, fluorescence polarization, FITC-PAM2 peptide, dose response (AID 602259); assay type: functional; details: read-out: IC50_Mean
[6] = blockers of HIV-1 envelope-mediated cell-cell fusion – cherry-pick, dose response (AID 652057); assay type: functional, cell-based
[7] = HIV-1 AD8 envelope cell-cell fusion blockers – cherry-pick, dose response (AID 652062); assay type: functional, cell-based;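 note: luciferase signal from cell-cell fusion driven by HIV-1 clade B AD8 Env; potency is for inhibitors of fusion seen as a drop in luminescence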
[8] = off-target signal loss in HeLa-CEM21 co-culture – HeLa F-luc CTL cells, cherry-picked, counter-screen for HIV-1 Env fusion inhibitor project, dose response (AID 652040); assay type: functional, cell-based;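 note: potency for signal decrease marking cytotoxic or nonspecific inhibition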
[9] = blockers of HIV-1 ZM109 envelope-driven cell-cell fusion – HeLa effector, CEM target cells, luciferase, cherry-pick, dose response (AID 652058); assay type: functional, cell-based;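 note: luciferase signal from HIV-1 Env mediated cell-cell fusion of effector and target cells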
[10] = reduction of Shn3 3'UTR-driven luciferase in osteoblasts – cell-based, Clone20 osteoblasts, firefly luciferase, cherry-picked, dose response (AID 624132); assay type: functional;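 note: firefly luciferase luminescence from reporter carrying the Shn3 3'UTR in osteoblasts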
[11] = non-specific 3'UTR reporter inhibition in Clone20-Shn3RL – cell-based, Renilla luciferase, cherry-picked, counter-screen for Shn3 inhibitor project, dose response (AID 624133); assay type: functional
[12] = loss of viability in HepG2 cells – cell-based, CellTiter-Glo, cherry-picked, cytotoxicity control for Shn3 inhibitor project, dose response (AID 624134); assay type: functional
[13] = molecular target: Eukaryotic translation initiation factor 4E (Mus musculus, UniProt P63073); assay: blockers of eIF4G binding by eIF4E – biochemical, TR-FRET, dose response (AID 855); assay type: functional;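 note: potency for disrupting eIF4E binding to eIF4GI seen as loss of FRET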
[14] = molecular target: Induced myeloid leukemia cell differentiation protein Mcl-1 (Homo sapiens, UniProt Q07820); assay type: functional
[15] = tested on: H9c2; assay: cells; assay type: functional, cell-based; details: Rattus norvegicus, H9c2, Myocardium;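 note: confirmatory concentration-response retest of ultra-high-throughput screening hits for modulation of myocardial damage; cell death induced by hydrogen peroxide oxidative stress; compound pretreatment for 60 min then peroxide exposure for 2 h; potency is for protecting the cells against peroxide damage rather than for killing them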
[16] = tested on: INS1; assay: INS-1E survival protection against cytokine death – cell-based, luminescence, retest, dose response (AID 449756); assay type: functional; details: Rattus norvegicus;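 note: cell death triggered by IL-1 beta plus TNF-alpha plus IFN-gamma mixture; protective hits raise ATP signal compared with cytokine alone wells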
[17] = molecular target: Cytochrome P450 3A4 (Homo sapiens, UniProt P08684);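 note: CYP3A4 tested as one member of a cytochrome P450 panel screen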
[18] = molecular target: Cytochrome P450 2C19 (Homo sapiens, UniProt P33261); assay: Cytochrome panel assay with activity outcomes. Panel member name: p450-cyp2c19 Compounds with AC50 equal or less than 10 uM are considered active; assay type: functional; details: read-out: AC50
Chain of Cytochrome P450 2C19 (P33261 whole entry): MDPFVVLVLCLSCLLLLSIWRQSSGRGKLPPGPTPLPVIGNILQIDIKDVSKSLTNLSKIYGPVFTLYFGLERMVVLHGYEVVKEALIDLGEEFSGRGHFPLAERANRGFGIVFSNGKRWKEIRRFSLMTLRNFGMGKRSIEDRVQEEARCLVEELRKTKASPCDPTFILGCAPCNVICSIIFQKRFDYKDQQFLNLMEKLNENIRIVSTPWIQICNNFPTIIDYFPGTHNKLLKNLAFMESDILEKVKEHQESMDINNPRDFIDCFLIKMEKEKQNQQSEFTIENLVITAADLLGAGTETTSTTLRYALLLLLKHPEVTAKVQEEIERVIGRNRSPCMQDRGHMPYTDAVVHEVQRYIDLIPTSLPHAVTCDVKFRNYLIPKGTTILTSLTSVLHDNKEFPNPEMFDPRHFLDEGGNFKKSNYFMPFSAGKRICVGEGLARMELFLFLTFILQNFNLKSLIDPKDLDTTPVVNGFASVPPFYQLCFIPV

T3 sequence (P11940 whole entry, the tested form may be a part): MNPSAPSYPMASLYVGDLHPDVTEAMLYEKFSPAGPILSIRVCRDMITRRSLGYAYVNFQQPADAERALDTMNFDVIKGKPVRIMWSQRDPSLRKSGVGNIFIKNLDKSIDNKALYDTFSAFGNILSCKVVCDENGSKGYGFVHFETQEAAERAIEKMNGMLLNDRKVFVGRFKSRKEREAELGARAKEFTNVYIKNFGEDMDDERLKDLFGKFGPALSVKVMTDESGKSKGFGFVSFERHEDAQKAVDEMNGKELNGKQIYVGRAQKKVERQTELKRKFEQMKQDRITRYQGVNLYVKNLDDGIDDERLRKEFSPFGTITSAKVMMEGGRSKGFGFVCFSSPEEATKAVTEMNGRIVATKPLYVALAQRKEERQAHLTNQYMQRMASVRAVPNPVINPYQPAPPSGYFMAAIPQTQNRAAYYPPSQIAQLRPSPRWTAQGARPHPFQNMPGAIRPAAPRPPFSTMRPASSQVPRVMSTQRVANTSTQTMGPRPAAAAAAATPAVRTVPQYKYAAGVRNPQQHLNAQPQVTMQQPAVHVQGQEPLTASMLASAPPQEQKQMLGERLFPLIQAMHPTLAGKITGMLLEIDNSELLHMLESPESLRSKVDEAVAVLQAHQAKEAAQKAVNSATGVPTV
Chain of Glyceraldehyde-3-phosphate dehydrogenase (P04406 whole entry): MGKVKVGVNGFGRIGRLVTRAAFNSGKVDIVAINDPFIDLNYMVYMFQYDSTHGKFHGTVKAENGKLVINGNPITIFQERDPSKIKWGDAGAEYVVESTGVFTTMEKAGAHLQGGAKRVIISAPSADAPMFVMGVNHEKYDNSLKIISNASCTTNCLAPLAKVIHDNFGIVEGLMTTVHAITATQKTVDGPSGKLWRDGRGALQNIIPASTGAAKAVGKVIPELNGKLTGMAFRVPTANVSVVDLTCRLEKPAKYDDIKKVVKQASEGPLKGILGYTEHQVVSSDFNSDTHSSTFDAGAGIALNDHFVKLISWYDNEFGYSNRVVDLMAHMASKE
Chain of Induced myeloid leukemia cell differentiation protein Mcl-1 (Q07820 whole entry): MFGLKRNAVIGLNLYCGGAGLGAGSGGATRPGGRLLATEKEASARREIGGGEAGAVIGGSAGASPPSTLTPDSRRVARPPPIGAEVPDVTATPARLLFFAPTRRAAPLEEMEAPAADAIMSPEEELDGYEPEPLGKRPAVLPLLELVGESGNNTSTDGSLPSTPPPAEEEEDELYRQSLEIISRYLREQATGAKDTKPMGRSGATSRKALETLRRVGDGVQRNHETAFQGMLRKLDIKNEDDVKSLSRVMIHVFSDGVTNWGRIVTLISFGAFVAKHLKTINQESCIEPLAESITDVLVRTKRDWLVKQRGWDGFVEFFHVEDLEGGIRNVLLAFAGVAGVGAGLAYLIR
Chain of Eukaryotic translation initiation factor 4E (P63073 whole entry): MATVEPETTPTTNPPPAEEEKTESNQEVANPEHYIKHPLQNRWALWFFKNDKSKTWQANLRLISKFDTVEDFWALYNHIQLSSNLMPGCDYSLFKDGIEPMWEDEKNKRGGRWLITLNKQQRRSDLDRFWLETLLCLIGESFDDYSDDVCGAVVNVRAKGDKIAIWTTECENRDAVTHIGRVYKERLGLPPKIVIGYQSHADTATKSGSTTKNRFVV
Chain of Cytochrome P450 3A4 (P08684 whole entry): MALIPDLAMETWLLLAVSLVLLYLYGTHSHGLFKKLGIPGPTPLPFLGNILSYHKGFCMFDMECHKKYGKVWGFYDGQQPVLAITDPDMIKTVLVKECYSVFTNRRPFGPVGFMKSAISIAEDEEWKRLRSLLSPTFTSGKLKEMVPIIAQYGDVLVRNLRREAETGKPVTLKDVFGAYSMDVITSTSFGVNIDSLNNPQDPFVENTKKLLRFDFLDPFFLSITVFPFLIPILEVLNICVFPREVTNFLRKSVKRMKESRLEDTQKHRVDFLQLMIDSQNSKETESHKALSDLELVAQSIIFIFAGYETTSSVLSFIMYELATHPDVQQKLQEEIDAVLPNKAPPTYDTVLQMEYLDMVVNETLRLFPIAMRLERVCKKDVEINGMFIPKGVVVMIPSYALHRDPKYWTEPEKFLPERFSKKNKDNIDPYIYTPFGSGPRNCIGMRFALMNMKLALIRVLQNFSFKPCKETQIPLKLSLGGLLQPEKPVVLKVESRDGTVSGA

SMILES: O=C(O)C1CC=CCC1C(=O)NCCc1cccc(Cl)c1 (stereo not given)
IC50 [1]: 11.8 µM (active)

SMILES: CCC1(c2ccccc2)NC(=O)N(CC(=O)Nc2cc(S(=O)(=O)N3CCCCC3)ccc2OC(C)C)C1=O (stereo not given)
AC50 [6]: 1.8 µM (active)
AC50 [7]: 14.7 µM (active)
AC50 [8]: 5.57 µM (active)
AC50 [9]: 3.02 µM (active)

SMILES: O=c1[nH]nc(Sc2ccccc2)c(=S)[nH]1
IC50 [4]: > 66 µM (inactive)
IC50 [5]: > 66 µM (inactive)

SMILES: CCOC(=O)c1c(NC(=O)C2C3C=CC(CC3)C2C(=O)O)sc(C)c1CC (stereo not given)
IC50 [1]: 13.2 µM (active)

SMILES: CC(C)(C)N1C(=O)[C@H]2[C@@H](c3ccc(Br)cc3)N3C(=O)N(c4ccccc4)C(=O)[C@@]3(C)[C@H]2C1=O
AC50 [6]: 1.13 µM (active)
AC50 [7]: 1.83 µM (active)
AC50 [8]: 1.18 µM (active)
AC50 [9]: 1.08 µM (active)

SMILES: Cc1nc2sccn2c1-c1csc(NCc2ccccc2)n1
AC50 [6]: 15.4 µM (active)
AC50 [7]: 10.7 µM (active)
AC50 [8]: 24 µM (active)
AC50 [9]: 10.1 µM (active)

SMILES: CC(C)C[C@H]1CN=C(N(C)C)N1CC1CCCCCC1
AC50 [10]: 5.03 µM (active)
AC50 [11]: 9.97 µM (active)
AC50 [12]: > 70 µM (inactive)

SMILES: Cc1cc(C)n2nc(SCC(=O)c3cc(C)n(-c4cc(C)on4)c3C)nc2n1
AC50 [10]: 2.46 µM (active)
AC50 [11]: 3.28 µM (active)
AC50 [12]: > 70 µM (inactive)

SMILES: Cn1nc(C(F)(F)F)c2cc(NC(=O)OCc3ccc(F)cc3)sc21
IC50 [2]: 6.72 µM (active)

SMILES: Cc1cc(Cl)ccc1OCCCC(=O)Nc1cc(S(=O)(=O)N2CCOCC2)ccc1N1CCOCC1
AC50 [6]: 2.05 µM (active)
AC50 [7]: 7.34 µM (active)
AC50 [8]: 4.73 µM (active)
AC50 [9]: 5.3 µM (active)

SMILES: CC1(C)CC2CC(C)(CN2S(=O)(=O)c2cccc(C(=O)OCC(=O)NC(N)=O)c2)C1 (stereo not given)
AC50 [6]: 6.32 µM (active)
AC50 [7]: 13.8 µM (active)
AC50 [8]: 6.33 µM (active)
AC50 [9]: 6.73 µM (active)

SMILES: COc1ccc(N(C(=O)c2cccnc2)S(=O)(=O)c2cccs2)cc1
IC50 [15]: > 79 µM (inactive)

SMILES: O=C(NCc1cccnc1)c1cnc2cc3c(cc2c1O)OCCO3
AC50 [7]: 1.22 µM (active)
AC50 [8]: < 0.26 µM (active)

SMILES: COc1cccc(N2CC(C(=O)NCc3nnc(O)c4ccccc34)CC2=O)c1 (stereo not given)
IC50 [15]: > 79 µM (inactive)

SMILES: CCCCCCSc1ccc([C@H]2N[C@@](Cc3ccccc3)(C(=O)OC)[C@H]3C(=O)N(C)C(=O)[C@@H]23)cc1
AC50 [16]: 14.1 µM (active)
IC50 [15]: > 79 µM (inactive)

SMILES: O=C(Nc1cccc(C(F)(F)F)c1)c1cccn(Cc2ccc3c(c2)OC(F)(F)O3)c1=O
AC50 [17]: 25.1 µM (inconclusive)
IC50 [2]: > 50 µM (not active)
AC50 [18]: 2.24 µM (inconclusive)

Other lines, results leading:

IC50 [1]: 91.5 µM (active)
SMILES: CCCN1C=CC(=C/C=C(\C#N)C(=O)OCC)C=C1

IC50 [2]: > 50 µM (not active)
SMILES: COc1cc2c(cc1[N+](=O)[O-])n(C(C)C)c(=O)n2C(C)C

IC50 [3]: > 100 µM (not active)
SMILES: O=C(O)CSc1cccc2c(SCC(=O)O)cccc12

IC50 [2]: > 50 µM (not active)
SMILES: O=C(c1cc([N+](=O)[O-])ccc1N1CCOCC1)N1CCCCC1

IC50 [4]: > 66 µM (inactive)
IC50 [5]: > 66 µM (inactive)
SMILES: COc1ccc(NC(=O)CSc2nnc(CCC(=O)O)c(=O)n2N)cc1

IC50 [1]: 36.6 µM (active)
SMILES: CC1=NNC(=O)C1CCC(=O)N/N=C(\C)c1ccccc1 (stereo not given)

IC50 [2]: > 50 µM (not active)
SMILES: CCOc1ncccc1C(=O)Nc1nnc(C)s1

IC50 [4]: > 66 µM (inactive)
IC50 [5]: > 66 µM (inactive)
SMILES: Cc1cccc(NC(=O)NC(=S)NC(=O)c2ccccc2)c1

IC50 [2]: 5.76 µM (not active)
SMILES: CC1(C(=O)NCc2ccc(Cl)c(Cl)c2)Oc2ccccc2NC1=O (stereo not given)

IC50 [3]: > 100 µM (not active)
SMILES: O=C(CSc1ccccn1)Nc1ccc(O)c(C(=O)O)c1

IC50 [3]: > 50 µM (inconclusive)
SMILES: O=C1C(Cl)=C(N2CCN(C/C=C/c3ccccc3)CC2)C(=O)N1c1ccc(Cl)nc1

IC50 [4]: > 66 µM (inactive)
IC50 [5]: > 66 µM (inactive)
SMILES: CC(=O)c1cccc(S(=O)(=O)NC2CCSc3ccccc32)c1 (stereo not given)

IC50 [2]: 3.42 µM (not active)
SMILES: COc1ccccc1NC(=O)C12CC3CC(C1)CC(c1ccc(C)cc1)(C3)C2

IC50 [13]: 50 µM (inactive)
IC50 [14]: 3.24 µM (not active)
IC50 [1]: 3.05 µM (active)
SMILES: O=C(O)CCN1C(=O)/C(=C/c2cn(-c3ccccc3)nc2-c2cccs2)SC1=S

IC50 [4]: > 66 µM (inactive)
IC50 [5]: > 66 µM (inactive)
SMILES: CCC(C)NC(=O)[C@H]1N2C(=O)c3c(ccc(OC)c3OC)C2SC1(C)C (stereo not given in full)

IC50 [1]: 8.96 µM (active)
SMILES: COc1ccc(CC(CC(=O)O)C(=O)Nc2ccc(OC)cc2)cc1 (stereo not given)

IC50 [1]: 22.8 µM (active)
SMILES: Cc1cc(C(=O)CSc2nc[nH]n2)c(C)n1-c1cccc(S(=O)(=O)N2CCOCC2)c1

IC50 [4]: > 66 µM (inactive)
IC50 [5]: > 66 µM (inactive)
SMILES: O=C(NC(=S)NC1CCSC1=O)c1ccc([N+](=O)[O-])cc1 (stereo not given)

IC50 [1]: 8.08 µM (active)
SMILES: CC(C)c1c(O)nc(SCC(=O)Nc2ccc3c(c2)CCC3)[nH]c1=O

IC50 [4]: > 66 µM (inactive)
IC50 [5]: > 66 µM (inactive)
SMILES: CCN(CC(=O)Nc1ccc(OC)cc1)C(=O)CSCc1c(C)noc1C

IC50 [4]: > 66 µM (inactive)
IC50 [5]: > 66 µM (inactive)
SMILES: Oc1nc(S)nc2c1CN(Cc1ccc(F)cc1)CC2
